Measured values published in patent US7923465B2, “Cannabinoid receptor ligands, pharmaceutical compositions containing them, and process for their preparation” (priority 2005, dated 2011).
Read-outs that look alike come from different tables or passages of the source.

Key:
hCB2 = hCB2 (Homo sapiens, UniProt P34972); assay: In vitro binding assay using hCB2-CHO membranes, [3H]-CP-55,940 displacement (Protocol IV); design: expressed in transfected cells; host or cells: CHO (hCB2-CHO, generated in-house); conditions: 1 h, read-out: % Displacement Protocol IV
hCB2, sequence (P34972 whole entry): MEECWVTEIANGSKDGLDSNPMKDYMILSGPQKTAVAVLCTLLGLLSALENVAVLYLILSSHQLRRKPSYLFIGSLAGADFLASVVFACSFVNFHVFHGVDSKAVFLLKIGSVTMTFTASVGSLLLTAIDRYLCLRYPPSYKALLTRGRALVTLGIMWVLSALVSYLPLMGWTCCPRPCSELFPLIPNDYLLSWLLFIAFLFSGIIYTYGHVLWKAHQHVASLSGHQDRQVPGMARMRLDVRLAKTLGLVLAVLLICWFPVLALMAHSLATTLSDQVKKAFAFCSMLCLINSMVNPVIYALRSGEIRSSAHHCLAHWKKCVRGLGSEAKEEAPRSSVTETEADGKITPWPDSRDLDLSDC
In short: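 Compounds were tested at a single 300 nM final concentration for displacing 0.75 nM [3H]-CP-55,940 from hCB2-CHO membranes (1 h, 30 °C, 50 mM Tris pH 7.4, 5 mM MgCl2, 1 mM EDTA, 0.1% BSA). Filter-bound radioactivity was counted, with 0.5 μM unlabelled CP-55,940 for nonspecific binding; results are % displacement.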

CB1 [1] = target: T1, CB1 (Rattus norvegicus, UniProt P20272); assay: GTPγS binding assay, CB1 functional assay in rat cerebellar membrane (Protocol VIII); type: biochemical; design: 10 μg rat cerebellum membrane; from tissue; host or cells: rat cerebellum membrane, prepared in-house; conditions: for activation at 1 µM / activation at 0.3 µM: 1 h, read-out: Per Se % Stimulation; for inhibition at 1 µM / inhibition at 0.3 µM: read-out: % Inhibition of WIN-55212-2 induced stimulation; for activation at 0.3 µM: tested at 300 nM; for inhibition at 0.3 µM: tested at 300 nM in presence of 1 μM WIN 55,212-2
T1 sequence (P20272 whole entry): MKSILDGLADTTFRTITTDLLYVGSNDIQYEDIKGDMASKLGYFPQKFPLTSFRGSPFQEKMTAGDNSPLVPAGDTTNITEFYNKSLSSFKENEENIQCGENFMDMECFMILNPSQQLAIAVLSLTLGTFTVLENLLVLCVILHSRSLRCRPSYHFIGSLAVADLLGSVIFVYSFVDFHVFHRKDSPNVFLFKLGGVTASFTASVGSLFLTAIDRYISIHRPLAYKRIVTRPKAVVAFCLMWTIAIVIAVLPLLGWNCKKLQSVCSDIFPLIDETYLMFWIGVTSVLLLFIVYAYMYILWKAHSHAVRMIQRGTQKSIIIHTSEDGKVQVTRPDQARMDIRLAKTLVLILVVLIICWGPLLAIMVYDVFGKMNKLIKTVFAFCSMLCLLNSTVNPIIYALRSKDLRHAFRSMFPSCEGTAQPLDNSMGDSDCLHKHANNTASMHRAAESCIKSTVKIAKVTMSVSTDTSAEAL
Protocol: VIII. Protocol for GTPγS Binding Assay (CB1 Functional Assay in Rat Cerebellar Membrane)
In this GTPγS binding assay, total, basal and nonspecific binding were determined. See Griffin G., Atkinson P. J., Showalter V. M., Martin B. R. and Abood M. E., “Evaluation of cannabinoid receptor agonists and antagonists using the Guanosine-5′-O-(3-(^35S)thio)-triphosphate binding assay in rat cerebellar membranes,” J Pharmacol Exp Ther 285: 553-560, 1998. Three wells for total binding, three wells for basal binding, and three wells for nonspecific binding at 0.2 nM concentration of radioligand were used. Basal binding was defined by 50 μM GDP (Guanosine diphosphate) and non-specific binding was defined by 10 μM unlabeled GTPγS. 10 μg rat cerebellum membrane, 50 μM of GDP, WIN-55212-2 or test compound (1 μM or 300 nM), 10 μM unlabeled GTPγs, and 0.2 nM of [^35S]GTPγS were added into a 96 well plate and the final volume of the reaction mixture was made with GTPγS buffer (50 mM Tris, 3 mM anhydrous MgCl2, 0.2 mM EGTA and 100 mM NaCl pH 7.4) to 200 μl. The plates were incubated at 30° C. for 1 hour. Then the reaction was stopped by filtration using a Whatman GF/B-96 microfilter plate. Three washings were given using Tris-HCl. The radioactivity bound to the brain membrane was retained on the filter disks to which scintillation fluid was added (Microscint PS). Then plates were read for radioactive counts using a Beta Liquid Scintillation Counter (Packard Instruments, Ill., USA).
The rat cerebellar brain membrane was prepared as follow: • 1. Sacrifice the rat and take out the whole brain and separate cerebellum as fast as possible and keep it on ice. • 2. Take the weight of the cerebellum and homogenize in 30 ml of homogenizing buffer (50 mM Tris-HCL containing 1 mM EDTA and 5% sucrose, pH 7.5) using homogenizer in cold condition. • 3. Centrifuge the homogenized cerebellum at 18000 rpm (38000 g) for 15 min at 4° C. • 4. Resuspend the pellet in 5 ml 50 mM Tris-HCL containing 1 mM EDTA and keep it on ice for 30 min. • 5. Pass the membrane through insulin syringe to ensure uniform suspension. • 6. Centrifuge the membrane at 18000 rpm at 4° C. for 20 min. • 7. Reconstitute the pellet in 3 ml of GTPγS buffer and estimate the protein by BCA assay and store the membrane in aliquots of 1000 μg of protein. CB1 Agonist and Antagonist Activity Screening Assay
The test compounds were screened at a final concentration of 1 μM or 300 nM in the absence and presence of 1 μM of WIN 55, 212-2 in the same manner as described in the GTPγS binding assay.
An agonist will stimulate the GTPγS binding over the basal.
An inverse agonist will decrease the basal GTPγS binding and/or produce more than 100% inhibition of the agonist (WIN-55212-2) induced stimulation.
The percent stimulation of GTPγS binding by each test compound at 1 μM or 300 nM concentration in the absence and presence of 1 μM WIN 55, 212-2 was calculated by comparing it with basal specific bound (Basal binding—Non Specific binding) values.

CB1 [2] = target: T1, CB1; assay: Rat CB1 receptor binding using brain membrane, [3H]SR141716A displacement (Protocol I); design: CB1 receptor present in a rat brain membrane preparation; from tissue; host or cells: rat brain membrane; inhibition: dose or concentration left out as unconfirmed; conditions: 1 h
[3] = hCB2-CHO membranes, [3H]-CP-55,940 displacement
[4] = GTPγS binding over basal, rat cerebellar membrane, tested at 1 uM
[5] = GTPγS binding, tested at 1 uM in presence of 1 μM WIN 55,212-2
[6] = rat brain membrane, [3H]SR141716A displacement, read-out: % Displacement Protocol I
[7] = GTPγS binding over basal, rat cerebellar membrane
[8] = read-out: % Displacement Protocol I, rat brain membrane, [3H]SR141716A displacement

Compound	melting point [°C]	inhibition at 0.3 µM (hCB2; [3]) [%]	activation at 1 µM (CB1 [1]; [4]) [%]	inhibition at 1 µM (CB1 [1]; [5]) [%]	inhibition (CB1 [2]; [6]) [%]	activation at 0.3 µM (CB1 [1]; [7]) [%]	inhibition at 0.3 µM (CB1 [1]; GTPγS binding) [%]	inhibition at 0.3 µM (hCB2) [%]	inhibition (CB1 [2]; [8]) [%]	Per Se % Stimulation (CB1 [1]; [4]) [%]	% Inhibition of WIN-55212-2 induced stimulation (CB1 [1]; [5]) [%]
O=C(NCc1ccc(F)cc1)c1nn(-c2ccc(Cl)cc2Cl)c2c1C1CC3CC(C1)CC2C3 [Example 172, N(7)-(4-Fluorobenzyl)-5-(2,4-dichlorophenyl)-5,6-diazatetracyclo[7.3.1.1^3,11.0^4,8]tetradeca-4(8),6-diene-7-carboxamide]	68 to 70	25.1	-18.3	115	59.2						
O=C(NNc1cccc(F)c1)c1nn(-c2ccc(Cl)cc2)c2c1C1CCC2C1 (stereo not shown) [Example 233, N(3)-[(3-Fluorophenyl)amino]-1-(4-chlorophenyl)-4,5,6,7-tetrahydro-1H-4,7-methano-indazole-3-carboxamide]	199	46.2	-16.3	79.5	73.2						
O=C(NCc1ccccc1Cl)c1nn(-c2ccc(Cl)cc2)c2c1C1CC3CC(C1)CC2C3 [Example 111, N(7)-(2-Chlorobenzyl)-5-(4-chlorophenyl)-5,6-diazatetracyclo[7.3.1.1^3,11.0^4,8]tetradeca-4(8),6-diene-7-carboxamide]	162 to 164		6.1	101	111						
Cc1ccc(-n2nc(C(=O)NCc3ccccc3Cl)c3c2C2CC4CC(CC3C4)C2)cc1 [Example 162, N(7)-(2-Chlorobenzyl)-5-(4-methylphenyl)-5,6-diazatetracyclo[7.3.1.1^3,11.0^4,8]tetradeca-4(8),6-diene-7-carboxamide]	127 to 130	33.8			38.9	-29.2	72				
O=C(NCCc1ccccc1)c1nn(-c2ccc(Cl)cc2Cl)c2c1C1CC3CC(C1)CC2C3 [Example 178, N(7)-(2-Phenylethyl)-5-(2,4-dichlorophenyl)-5,6-diazatetracyclo[7.3.1.1^3,11.0^4,8]tetradeca-4(8),6-diene-7-carboxamide]	63 to 66	6.04	-0.7	88	47						
Cl.O=C(NNc1ccc(F)cc1)c1nn(-c2ccc(Cl)cc2)c2c1C1CC3CC(C1)CC2C3 [Example 131, N(7)-(4-Fluorophenylamino)-5-(4-chlorophenyl)-5,6-diazatetracyclo[7.3.1.1^3,11.0^4,8]tetradeca-4(8),6-diene-7-carboxamide hydrochloride]	175		-1.7	86				10.8	85.2		
O=C(NNc1ccc(F)cc1F)c1nn(-c2ccc(Cl)cc2)c2c1C1CC3CC(C1)CC2C3 [Example 132, N(7)-(2,4-Difluorophenylamino]-5-(4-chlorophenyl)-5,6-diazatetracyclo[7.3.1.1^3,11.0^4,8]tetradeca-4(8),6-diene-7-carboxamide]	195 to 196	3.94	7.2	89.2	64.5						
O=C(NCc1ccccc1)c1nn(-c2ccc(Cl)cc2Cl)c2c1C1CCC2c2ccccc21 (stereo not shown) [Example 501, N(12)-Benzyl-10-(2,4-dichlorophenyl)-10,11-diazatetracyclo[6.5.2.0^2,7.0^9,13]pentadeca-2,4,6,9(13),11-pentaene-12-carboxamide]	164 to 166		53.7	40.1	82.5						
O=C(NNc1ccccc1)c1nn(-c2ccc(Cl)cc2)c2c1C1CC3CC(C1)CC2C3 [Example 121, N(7)-(N′-phenylamino)-5-(4-chlorophenyl)-5,6-diazatetracyclo[7.3.1.1^3,11.0^4,8]tetradeca-4(8),6-diene-7-carboxamide]	103 to 105	29.8			65.4					16.0	81.3
C[C@@H](NC(=O)c1nn(-c2ccc(Cl)cc2Cl)c2c1C1CCC2C1)c1ccccc1 (stereo partly drawn) [Example 253, N(3)-[R-(1-phenylethyl)]-1-(2,4-dichlorophenyl)-4,5,6,7-tetrahydro-1H-4,7-methano-indazole-3-carboxamide]	89 to 92				63	-9.3	79.9				
O=C(NNc1ncccc1Cl)c1nn(-c2ccc(Cl)cc2Cl)c2c1C1CCC2C1 (stereo not shown) [Example 267, N(3)-[(3-chloropyridin-2-yl)amino]-1-(2,4-dichlorophenyl)-4,5,6,7-tetrahydro-1H-4,7-methano-indazole-3-carboxamide]	95				90	12.3	43.6				
O=C(NNc1ccccc1)c1nn(-c2ccc(Cl)cc2Cl)c2c1C1CC3CC(C1)CC2C3 [Example 173, N(7)-Phenylamino-5-(2,4-dichlorophenyl)-5,6-diazatetracyclo[7.3.1.1^3,11.0^4,8]tetradeca-4(8),6-diene-7-carboxamide]	162 to 163		1.3	99.5	67.1						
O=C(NCc1ccccc1Br)c1nn(-c2ccc(Cl)cc2)c2c1C1CCC2C1 (stereo not shown) [Example 224, N(3)-(2-Bromobenzyl)-1-(4-chlorophenyl)-4,5,6,7-tetrahydro-1H-4,7-methano-indazole-3-carboxamide]	141 to 142		5	78.1					81.6		
O=C(NN1CCCCC1)c1nn(-c2ccc(F)cc2F)c2c1C1CC3CC(C1)CC2C3 [Example 143, N(7)-Piperidino-5-(2,4-difluorophenyl)-5,6-diazatetracyclo[7.3.1.1^3,11.0^4,8]tetradeca-4(8),6-diene-7-carboxamide]	215		43.1	45	102						
O=C(NNc1ccccc1)c1nn(-c2ccc(Cl)cc2Cl)c2c1C1CCC2C1 (stereo not shown) [Example 256, N(3)-Phenylamino-1-(2,4-dichlorophenyl)-4,5,6,7-tetrahydro-1H-4,7-methano-indazole-3-carboxamide]	182 to 185		-21.5	69.7	63.3						
